# Measured values: patent US20130253022A1 (FOX CHASE CHEMICAL DIVERSITY CENTER, INC., priority 2010, published 2013)
# pEC50: −log10 of the molar value.
# Test system: Hippocampal Cultures
# Assay: Neuroprotection from heavy metal toxicity, CFDA assay
# Type: cell-based, rat
# Conditions: for pEC50: Rattus norvegicus
# Excerpt: All compounds were screened with dissociated hippocampal cultures derived from embryonic day 18 rats as the primary test system. With this preparation, primary neurons were used to test for prevention of heavy metal toxicity by the disclosed compounds. In brief, hippocampal tissue was obtained commercially through Brain Bits (Springfield, Ill.) and cultures prepared as previously described (Brewer, G. J. Serum-free B27/neurobasal medium supports differentiated growth of neurons from the striatum, substantia nigra, septum, cerebral cortex, cerebellum and dentate gyms, J. Neurosci. Res., 1995, 42, 674-683). The hippocampal neurons were platted at low density (10,000 cell/well) in a 96-well format and maintained in serum-free medium consisting of Neurobasal Medium supplemented with B27 and GlutaMAX (Gibco). Pre-coated poly-L-lysine coated plates are used because of the preferential adherence and survival of hippocampal neurons on this matrix support. Heavy metal toxicity is associated with the occurrence of seizures ([…] et al. Zinc and copper: pharmacological probes and endogenous modulators of neuronal excitability. Pharmacol. Ther. 2006, 111, 567-583). Therefore, the heavy metal toxicity studies serve as another example of the oxidative stress that the disclosed compounds have a protection action against. To establish the dose-dependency of test agents, day 18 hippocampal cultures were utilized to study the toxicity produced after treatment with the heavy metals and neuroprotection after treatment with test compounds. Serving as examples of heavy metal salts for these studies are the following: […] Prior to treatment, the B27/Neural Basal media of the cultures were replaced with B27 neural basal medium without antioxidants for 18 hours. […] Further, the removal of antioxidants in the medium was performed to obtain a significant and reproducible toxic signal for heavy metal treatment of the hippocampal neurons. Toxicity produced by heavy metals is measured by decreases in neuronal viability. Carboxyfluorescein (CFDA) was used a vital stain for all cell toxicity and neuroprotection studies. With the use of the CytoFluor fluorimeter, the CFDA assay was employed to assess the viability of neurons. CFDA is a dye that becomes fluorescent upon cell entry and cleavage by cytosolic esterases (Petroski and Geller. Selective labeling of embryonic neurons cultures on astrocyte monolayers with 5(6)-carboxyfluorescein diacetate [CFDA]. J. Neurosci. Methods 1994, 52, 23-32). Neuronal specificity is obtained relative to astrocytes because the cleaved dye is extruded extracellularlly by glia with time, while dye in neurons remains intracellular. Dose responses to the various heavy metal salts determined the minimal concentration that produced the maximum amount of toxicity. […] All test compounds are dissolved to 10 mM in Dulbecco's phosphate buffered saline (DPBS; Sigma: D-5780) prior to testing. To test for neuroprotection from a heavy metal toxicity, day 11 hippocampal cultures are given a complete change of medium containing 100 μl of Neurobasal medium with B27 that contain no antioxidants. Twenty-four hours after the change in medium, the heavy metal neuroprotection studies are started. […] At the conclusion of the 4 hour incubation period, the dye is removed from the cultures and washed once with 100 μl of DPBS. After removal of the first wash, a second wash of DPBS is added to the culture and then incubated for 30 min to allow the efflux of dye out of glia in the cultures. At the conclusion of the 30 min efflux period, the culture efflux medium is removed and 100 μl of 0.1% triton-X100 in water is added to the cultures before reading at Ex490/Em517 in a CytoFluor fluorimeter. Results are expressed in relative fluorescent units (RFU) and EC50's calculated from the dose response of the test compound.
smiles,measurement,setting,value
"NS(=O)(=O)NCC(F)(F)c1ccccc1F [Example 1, 2,2-Difluoro-2-(2-fluorophenyl)-ethyl-1-sulfamide]",pEC50,Cobalt Chloride hexahydrate 10 μM,7.00
same,pEC50,Copper Acetate monohydrate 10 μM,10.00
same,pEC50,Iron sulfate hexahydrate 10 μM,9.00
same,pEC50,Nickel Chloride hexahydrate 10 μM,8.00
same,pEC50,Zinc Acetate dehydrate 1 μM,10.00
same,Prevention of toxicity of 5 heavy metals,"five heavy metal salts at the Table 3 concentrations, CFDA and PI assays",prevented the toxicity of 5 heavy metals
